Consider 19 compounds from patent publication US9834542B2, “LXR modulators” (BRISTOL-MYERS SQUIBB COMPANY, priority 2013, dated 2017).

In the test the target is T1, LXRβ (Homo sapiens, UniProt P55055).
T1 construct: Co-transfection expression plasmids, comprising full-length LXRα (pCMX-h LXRα[…] or LXRβ (pCMX-hLXRβ)); expressed in transfected cells; host or cells: CV-1 African Green Monkey Kidney Cells
T1 sequence (P55055 1-460): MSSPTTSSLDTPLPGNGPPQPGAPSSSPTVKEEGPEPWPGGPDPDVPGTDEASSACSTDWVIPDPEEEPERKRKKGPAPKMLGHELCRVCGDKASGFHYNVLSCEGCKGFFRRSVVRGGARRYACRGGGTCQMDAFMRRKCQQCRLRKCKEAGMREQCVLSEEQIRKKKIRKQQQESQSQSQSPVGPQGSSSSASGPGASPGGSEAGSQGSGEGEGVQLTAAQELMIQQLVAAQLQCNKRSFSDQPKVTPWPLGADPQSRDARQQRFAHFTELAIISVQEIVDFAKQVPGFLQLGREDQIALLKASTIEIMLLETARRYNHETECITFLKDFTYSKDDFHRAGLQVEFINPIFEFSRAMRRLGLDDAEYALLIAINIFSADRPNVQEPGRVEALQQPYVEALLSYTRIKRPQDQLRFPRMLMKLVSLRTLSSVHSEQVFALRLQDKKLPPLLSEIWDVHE
T1 sequence (P19793 1-462 partner): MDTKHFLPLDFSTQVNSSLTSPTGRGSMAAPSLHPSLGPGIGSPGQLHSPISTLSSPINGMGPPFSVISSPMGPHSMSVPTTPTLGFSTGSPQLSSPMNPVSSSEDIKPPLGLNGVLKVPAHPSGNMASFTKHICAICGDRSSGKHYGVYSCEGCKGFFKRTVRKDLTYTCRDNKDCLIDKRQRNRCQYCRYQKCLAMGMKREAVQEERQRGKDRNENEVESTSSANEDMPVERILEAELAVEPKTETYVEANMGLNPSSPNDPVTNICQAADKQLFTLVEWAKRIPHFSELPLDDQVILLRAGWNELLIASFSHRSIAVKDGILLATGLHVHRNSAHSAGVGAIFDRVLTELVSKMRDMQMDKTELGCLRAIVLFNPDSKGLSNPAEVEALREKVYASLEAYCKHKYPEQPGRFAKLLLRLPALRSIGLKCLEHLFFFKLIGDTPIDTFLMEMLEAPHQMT
Nature of the test: Co-transfection assay (LXRE luciferase reporter), LXRβ. The note with it: for EC50: CV-1 cells transfected with pCMX-hLXRβ and LXREx1-Tk-Luciferase, 20 hours incubation; for Emax: LXRβ co-transfection, relative to high control 1-(2,4-difluorobenzyl)-2-oxo-6-(4-phenoxyphenyl)-4-(trifluoromethyl)-1,2-dihydropyridine-3-carbonitrile, read-out: % Efficacy. The format is cell-based. An outline of the steps: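 Cell-based LXRβ agonism measured as LXRE-luciferase induction in transiently transfected CV-1 cells after 20 h treatment. Potency is the curve-fit EC50; efficacy is expressed as percent of a full-agonist control's maximal response.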
On the technique in general: In a reporter assay the amount or activity of a reporter protein is the signal.

For the compound `Cc1nc(-c2cc(-c3cc(F)c(CO)c(S(C)(=O)=O)c3)ccc2-n2cc(C(F)(F)F)nc2C)c(-c2ccc(Cl)c(OC(F)F)c2)o1` [Example 459, (3′-(5-(4-chloro-3-(difluoromethoxy)phenyl)-2-methyloxazol-4-yl)-3-fluoro-4′-(2-methyl-4-(trifluoromethyl)-1H-imidazol-1-yl)-5-(methylsulfonyl)biphenyl-4-yl)methanol], a half-maximal response (EC50) required 0.174 µM and the Emax turned out to be 77%.

As for `Cc1nc(-c2cc(-c3cccc(S(C)(=O)=O)c3)ccc2-n2cc(C(F)(F)F)nc2C)c(-c2ccc(F)c(OC(F)F)c2)o1` [Example 460, 5-(3-(difluoromethoxy)-4-fluorophenyl)-2-methyl-4-(4-(2-methyl-4-(trifluoromethyl)-1H-imidazol-1-yl)-3′-(methylsulfonyl)biphenyl-3-yl)oxazole], the 50% effective concentration (EC50) was determined as 0.55 µM and the Emax turned out to be 64%.

Consider `Cc1nc(-c2cc(-c3cc(F)c(CO)c(S(C)(=O)=O)c3)ccc2-n2cc(C(F)(F)F)nc2C)c(-c2ccc(F)c(OC(F)F)c2)o1` [Example 461, (3′-(5-(3-(difluoromethoxy)-4-fluorophenyl)-2-methyloxazol-4-yl)-3-fluoro-4′-(2-methyl-4-(trifluoromethyl)-1H-imidazol-1-yl)-5-(methylsulfonyl)biphenyl-4-yl)methanol], for which the EC50 came out at 0.127 µM and the Emax came out at 61%.

Turning to `Cc1nc(-c2cc(-c3cc(F)cc(S(C)(=O)=O)c3)ccc2-n2cc(C(F)(F)F)nc2C)c(-c2ccc(OC(F)F)c(F)c2)o1` [Example 462], the response was half-maximal at 0.233 µM (EC50) and the Emax worked out at 73%.

`Cc1nc(-c2cc(-c3cc(F)cc(S(C)(=O)=O)c3)ccc2-n2cc(C(F)(F)F)nc2C)c(-c2ccc3c(c2)OC(F)(F)O3)o1` [Example 463, 5-(2,2-difluorobenzo[d][1,3]dioxol-5-yl)-4-(3′-fluoro-4-(2-methyl-4-(trifluoromethyl)-1H-imidazol-1-yl)-5′-(methylsulfonyl)biphenyl-3-yl)-2-methyloxazole]: the midpoint of the response, the EC50, lay at 0.155 µM and the Emax was 73%.

As for `COc1ncc(-c2oc(C)nc2-c2cc(-c3cccc(S(C)(=O)=O)c3)ccc2-n2cc(Cl)nc2C)cc1F` [Example 464, 4-(4-(4-chloro-2-methyl-1H-imidazol-1-yl)-3′-(methylsulfonyl)biphenyl-3-yl)-5-(5-fluoro-6-methoxypyridin-3-yl)-2-methyloxazole], a half-maximal response (EC50) required 4.68 µM and the Emax amounted to 42%.

Consider `COc1ncc(-c2oc(C)nc2-c2cc(-c3cc(F)c(CO)c(S(C)(=O)=O)c3)ccc2-n2cc(Cl)nc2C)cc1F` [Example 465, (4′-(4-chloro-2-methyl-1H-imidazol-1-yl)-3-fluoro-3′-(5-(5-fluoro-6-methoxypyridin-3-yl)-2-methyloxazol-4-yl)-5-(methylsulfonyl)biphenyl-4-yl)methanol], for which the EC50 amounted to 0.24 µM and the Emax was found to be 45%.

`Cc1nc(-c2cc(-c3cccc(S(C)(=O)=O)c3)ccc2-n2cc(Cl)nc2C)c(-c2ccc(OC(F)F)c(F)c2)o1` [Example 466, 4-(4-(4-chloro-2-methyl-1H-imidazol-1-yl)-3′-(methylsulfonyl)biphenyl-3-yl)-5-(4-(difluoromethoxy)-3-fluorophenyl)-2-methyloxazole]: it took 0.198 µM to reach a half-maximal effect (EC50) and the Emax was found to be 84%.

With `Cc1nc(-c2cc(-c3cc(F)c(CO)c(S(C)(=O)=O)c3)ccc2-n2cc(Cl)nc2C)c(-c2ccc(OC(F)F)c(F)c2)o1` [Example 467, (4′-(4-chloro-2-methyl-1H-imidazol-1-yl)-3′-(5-(4-(difluoromethoxy)-3-fluorophenyl)-2-methyloxazol-4-yl)-3-fluoro-5-(methylsulfonyl)biphenyl-4-yl)methanol], the EC50 came out at 0.066 µM and the Emax amounted to 65%.

Regarding `Cc1cc(-c2oc(C)nc2-c2cc(-c3cccc(S(C)(=O)=O)c3)ccc2-n2cc(Cl)nc2C)cc(Cl)n1` [Example 468, 4-(4-(4-chloro-2-methyl-1H-imidazol-1-yl)-3′-(methylsulfonyl)biphenyl-3-yl)-5-(2-chloro-6-methylpyridin-4-yl)-2-methyloxazole], a half-maximal response (EC50) required 0.442 µM and the Emax worked out at 47%.

As to `Cc1nc(-c2cc(-c3ccc(CO)c(S(C)(=O)=O)c3)ccc2-n2cc(C(F)(F)F)nc2C)c(-c2cc(F)c(OC(F)F)c(F)c2)o1` [Example 469, (3′-(5-(4-(difluoromethoxy)-3,5-difluorophenyl)-2-methyloxazol-4-yl)-4′-(2-methyl-4-(trifluoromethyl)-1H-imidazol-1-yl)-3-(methylsulfonyl)biphenyl-4-yl)methanol], it took 0.089 µM to reach a half-maximal effect (EC50) and the Emax stood at 70%.

For the compound `Cc1nc(-c2cc(-c3ccc(C)c(S(C)(=O)=O)c3)ccc2-n2cc(C(F)(F)F)nc2C)c(-c2cc(F)c(OC(F)F)c(F)c2)o1` [Example 470, 5-(4-(difluoromethoxy)-3,5-difluorophenyl)-2-methyl-4-(4′-methyl-4-(2-methyl-4-(trifluoromethyl)-1H-imidazol-1-yl)-3′-(methylsulfonyl)biphenyl-3-yl)oxazole], the 50% effective concentration (EC50) was found to be 0.109 µM and the Emax turned out to be 56%.

As for `CCOc1ncc(-c2oc(C)nc2-c2cc(-c3cccc(S(C)(=O)=O)c3)ccc2-n2cc(C(F)(F)F)nc2C)cc1F` [Example 471, 5-(6-ethoxy-5-fluoropyridin-3-yl)-2-methyl-4-(4-(2-methyl-4-(trifluoromethyl)-1H-imidazol-1-yl)-3′-(methylsulfonyl)biphenyl-3-yl)oxazole], the response was half-maximal at 0.201 µM (EC50) and the Emax was 45%.

`CCOc1ncc(-c2oc(C)nc2-c2cc(-c3cc(F)c(CO)c(S(C)(=O)=O)c3)ccc2-n2cc(C(F)(F)F)nc2C)cc1F` [Example 472, (3′-(5-(6-ethoxy-5-fluoropyridin-3-yl)-2-methyloxazol-4-yl)-3-fluoro-4′-(2-methyl-4-(trifluoromethyl)-1H-imidazol-1-yl)-5-(methylsulfonyl)biphenyl-4-yl)methanol]: it took 0.199 µM to reach a half-maximal effect (EC50) and the Emax came out at 50%.

As to `CCOc1ncc(-c2oc(C)nc2-c2cc(-c3ccc(C)c(S(C)(=O)=O)c3)ccc2-n2cc(C(F)(F)F)nc2C)cc1F` [Example 473, 5-(6-ethoxy-5-fluoropyridn-3-yl)-2-methyl-4-(4′-methyl-4-(2-methyl-4-(trifluoromethyl)-1H-imidazol-1-yl)-3′-(methylsulfonyl)biphenyl-3-yl)oxazole], the EC50 came to 0.28 µM and the Emax stood at 50%.

`Cc1nc(-c2cc(-c3cccc(S(C)(=O)=O)c3)ccc2-n2cc(C(F)(F)F)nc2C)c(-c2ccc3c(c2)CCC3)o1` [Example 474, 5-(2,3-dihydro-1H-inden-5-yl)-2-methyl-4-(4-(2-methyl-4-(trifluoromethyl)-1H-imidazol-1-yl)-3′-(methylsulfonyl)biphenyl-3-yl)oxazole]: the EC50 is 0.119 µM and the Emax stood at 53%.

`Cc1nc(-c2cc(-c3cc(F)c(CO)c(S(C)(=O)=O)c3)ccc2-n2cc(C(F)(F)F)nc2C)c(-c2ccc3c(c2)CCC3)o1` [Example 475, (3′-(5-(2,3-dihydro-1H-inden-5-yl)-2-methyloxazol-4-yl)-3-fluoro-4′-(2-methyl-4-(trifluoromethyl)-1H-imidazol-1-yl)-5-(methylsulfonyl)biphenyl-4-yl)methanol]: the EC50 was 0.069 µM and the Emax was 56%.

As to `Cc1nc(-c2cc(-c3ccc(C)c(S(C)(=O)=O)c3)ccc2-n2cc(C(F)(F)F)nc2C)c(-c2ccc(C(F)(F)F)nc2Cl)o1` [Example 476, 5-(2-chloro-6-(trifluoromethyl)pyridin-3-yl)-2-methyl-4-(4′-methyl-4-(2-methyl-4-(trifluoromethyl)-1H-imidazol-1-yl)-3′-(methylsulfonyl)biphenyl-3-yl)oxazole], the EC50 stood at 0.726 µM and the Emax worked out at 39%.

`Cc1nc(-c2cc(-c3cc(F)c(CO)c(S(C)(=O)=O)c3)ccc2-n2cc(C(F)(F)F)nc2C)c(-c2ccc(C(F)(F)F)nc2Cl)o1` [Example 477, (3′-(5-(2-chloro-6-(trifluoromethyl)pyridin-3-yl)-2-methyloxazol-4-yl)-3-fluoro-4′-(2-methyl-4-(trifluoromethyl)-1H-imidazol-1-yl)-5-(methylsulfonyl)biphenyl-4-yl)methanol]: the EC50 worked out at 0.271 µM and the Emax came out at 66%.

By EC50 is commonly meant the concentration giving half of the maximal effect. A high value points to a less potent agent.
